Assays:
Assay type in all cases: in vivo
[1] = tested on: Echinochloa crus-galli (ECHCG); experiment: Test 1A glasshouse assay, pre-emergence herbicidal activity; details: 312 h, 250 g/ha, 13 days after application, read-out: Pre-emergence herbicidal activity (% phytotoxicity) ECHCG
Protocol: (§1) Seeds of a variety of test species were sown in standard soil in pots. After cultivation for one day (pre-emergence) or after 8 days cultivation (post-emergence) under controlled conditions in a glasshouse (at 24/16° C., day/night; 14 hours light; 65% humidity), the plants were sprayed with an aqueous spray solution derived from the formulation of the technical active ingredient in acetone/water (50:50) solution containing 0.5% Tween 20 (polyoxyethelyene sorbitan monolaurate, CAS RN 9005-64-5). The test plants were then grown under controlled conditions in a glasshouse (at 24/16° C., day/night; 14 hours light; 65% humidity) and watered twice daily. 13 days after application of the test herbicide, for pre- and post-emergence, the test was evaluated visually for percentage phytotoxicity to the plant (where 100%=total damage to plant; 0%=no damage to plant).
(§2) Test plants: Lolium perenne (LOLPE), Alopecurus myosuroides (ALOMY), Echinochloa crus-galli (ECHCG), and Avena fatua (AVEFA); these are all grassy monocotyledonous weeds.

Avena fatua (AVEFA) [2] = experiment: as above; details: 312 h, 250 g/ha, 13 days after application, read-out: Pre-emergence herbicidal activity (% phytotoxicity) AVEFA
Protocol: as §1, §2

Lolium perenne (LOLPE) [3] = experiment: as above; details: 312 h, 250 g/ha, 13 days after application, read-out: Pre-emergence herbicidal activity (% phytotoxicity) LOLPE
Protocol: as §1, §2

[4] = tested on: Alopecurus myosuroides (ALOMY); experiment: as above; details: 312 h, 250 g/ha, 13 days after application, read-out: Pre-emergence herbicidal activity (% phytotoxicity) ALOMY
Protocol: as §1, §2

[5] = tested on: Echinochloa crus-galli (ECHCG); experiment: Test 1A glasshouse assay, post-emergence herbicidal activity; details: Echinochloa crus-galli, 312 h, application rate 250 g/ha, 13 days after application, visual (100%=total damage; 0%=no damage), read-out: Post-emergence Herbicidal Activity (% Phytotoxicity) ECHCG
In short: (§3)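 Post-emergence spray at 8 d after sowing; vehicle acetone/water 50:50 + 0.5% Tween 20. Glasshouse 24/16 °C, 14 h light, 65% RH, watered 2×/day. Visual phytotoxicity (%) at 13 DAA.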

Avena fatua (AVEFA) [6] = experiment: as above; details: Avena fatua, 312 h, application rate 250 g/ha, 13 days after application, visual (100%=total damage; 0%=no damage), read-out: Post-emergence Herbicidal Activity (% Phytotoxicity) AVEFA
In short: as §3

Lolium perenne (LOLPE) [7] = experiment: as above; details: Lolium perenne, 312 h, application rate 250 g/ha, 13 days after application, visual (100%=total damage; 0%=no damage), read-out: Post-emergence Herbicidal Activity (% Phytotoxicity) LOLPE
In short: as §3

[8] = tested on: Alopecurus myosuroides (ALOMY); experiment: as above; details: Alopecurus myosuroides, 312 h, application rate 250 g/ha, 13 days after application, visual (100%=total damage; 0%=no damage), read-out: Post-emergence Herbicidal Activity (% Phytotoxicity) ALOMY
In short: as §3

[9] = tested on: Spring Barley “Harrington”; experiment: Test 1B glasshouse assay, post-emergence herbicidal activity against cereal crops
In short: (§4)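 Visual percentage damage (100% = total, 0% = none) read 14 days after application, averaged over two replicates. Plants grown 14 days at 22/16 °C day/night before post-emergence spraying of unformulated compound (IF50/acetone, 0.5% v/v Adigor). Rates usually 60–120 g/ha; cloquintocet-mexyl 50 g/ha co-applied where stated.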

Winter Wheat “Hereward” = experiment: as above
In short: as §4

Winter Barley “Suzuka” = experiment: as above
In short: as §4

[10] = tested on: Lolium multiflorum (LOLMU); experiment: Test 1B glasshouse assay, post-emergence herbicidal activity against grassy weeds; details: 14 DAA
In short: (§5)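 Unformulated compound was dissolved as a 50 g/L emulsifiable IF50, then diluted in 0.5% v/v Adigor to spray plants 14 days after sowing. Usual rates were 60 g/ha with or without, or 90 and 120 g/ha with, 50 g/ha cloquintocet-mexyl. Visual % phytotoxicity at 14 DAA, mean of two replicates.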

Setaria viridis (SETVI) = experiment: as above; details: 14 DAA
In short: as §5

Avena fatua (AVEFA) [11] = experiment: as above; details: 14 DAA
In short: as §5

[12] = tested on: Alopecurus myosuroides (ALOMY); experiment: as above; details: 14 DAA
In short: as §5

Poa annua (POAAN) = experiment: as above; details: 14 DAA
In short: as §5

Spring Wheat “Freya” = experiment: Test 1B glasshouse assay, post-emergence herbicidal activity against cereal crops
[13] = herbicide 30 g/ha, cloquintocet-mexyl 50 g/ha
[14] = herbicide 45 g/ha, cloquintocet-mexyl 50 g/ha
[15] = herbicide 60 g/ha, cloquintocet-mexyl 0 g/ha
[16] = herbicide 60 g/ha, cloquintocet-mexyl 50 g/ha
[17] = 30 g/ha herbicide, 50 g/ha cloquintocet-mexyl
[18] = 45 g/ha herbicide, 50 g/ha cloquintocet-mexyl
[19] = 60 g/ha herbicide, 0 g/ha cloquintocet-mexyl
[20] = 60 g/ha herbicide, 50 g/ha cloquintocet-mexyl

SMILES: Cc1cc(C)c(C2C(=O)CC(CCNC(=O)c3ccc(F)cc3)C2=O)c(C)c1 (stereo not shown) [Compound A19]
- inhibition at 250 g/ha [1]: 100%
- inhibition at 250 g/ha (Avena fatua (AVEFA) [2]): 50%
- inhibition at 250 g/ha (Lolium perenne (LOLPE) [3]): 100%
- inhibition at 250 g/ha [4]: 90%
- pest or weed control at 250 g/ha [5]: 100%
- pest or weed control at 250 g/ha (Avena fatua (AVEFA) [6]): 70%
- pest or weed control at 250 g/ha (Lolium perenne (LOLPE) [7]): 100%
- pest or weed control at 250 g/ha [8]: 80%

SMILES: Cc1cc(-c2ccc(F)cc2)cc(C)c1C1C(=O)CC(CCNC(=O)c2ccccn2)C1=O (stereo not shown) [Compound A32]
- inhibition at 250 g/ha [1]: 100%
- inhibition at 250 g/ha (Avena fatua (AVEFA) [2]): 80%
- inhibition at 250 g/ha (Lolium perenne (LOLPE) [3]): 100%
- inhibition at 250 g/ha [4]: 100%
- pest or weed control at 250 g/ha [5]: 100%
- pest or weed control at 250 g/ha (Avena fatua (AVEFA) [6]): 100%
- pest or weed control at 250 g/ha (Lolium perenne (LOLPE) [7]): 100%
- pest or weed control at 250 g/ha [8]: 90%

SMILES: Cc1cc(C)c(C2C(=O)C[C@@H](CCNC(=O)c3cc(Cl)ccn3)C2=O)c(C)c1 (stereo partly shown) [Compound A127]
- Percentage Phytotoxicity Spring Barley “Harrington” [9, 13]: 0%
- Percentage Phytotoxicity Spring Barley “Harrington” [9, 14]: 0%
- Percentage Phytotoxicity Spring Barley “Harrington” [9, 15]: 83%
- Percentage Phytotoxicity Spring Barley “Harrington” [9, 16]: 8%
- Percentage Phytotoxicity Winter Wheat “Hereward” (Winter Wheat “Hereward”; [13]): 0%
- Percentage Phytotoxicity Winter Wheat “Hereward” (Winter Wheat “Hereward”; [14]): 0%
- Percentage Phytotoxicity Winter Wheat “Hereward” (Winter Wheat “Hereward”; [15]): 65%
- Percentage Phytotoxicity Winter Wheat “Hereward” (Winter Wheat “Hereward”; [16]): 5%
- Percentage Phytotoxicity Winter Barley “Suzuka” (Winter Barley “Suzuka”; [13]): 0%
- Percentage Phytotoxicity Winter Barley “Suzuka” (Winter Barley “Suzuka”; [14]): 0%
- Percentage Phytotoxicity Winter Barley “Suzuka” (Winter Barley “Suzuka”; [15]): 85%
- Percentage Phytotoxicity Winter Barley “Suzuka” (Winter Barley “Suzuka”; [16]): 5%
- Post-emergence herbicidal activity, percentage phytotoxicity, LOLMU [10, 17]: 65%
- Post-emergence herbicidal activity, percentage phytotoxicity, LOLMU [10, 18]: 83%
- Post-emergence herbicidal activity, percentage phytotoxicity, LOLMU [10, 19]: 97%
- Post-emergence herbicidal activity, percentage phytotoxicity, LOLMU [10, 20]: 83%
- Post-emergence herbicidal activity, percentage phytotoxicity, SETVI (Setaria viridis (SETVI); [17]): 97%
- Post-emergence herbicidal activity, percentage phytotoxicity, SETVI (Setaria viridis (SETVI); [18]): 99%
- Post-emergence herbicidal activity, percentage phytotoxicity, SETVI (Setaria viridis (SETVI); [19]): 100%
- Post-emergence herbicidal activity, percentage phytotoxicity, SETVI (Setaria viridis (SETVI); [20]): 100%
- Post-emergence herbicidal activity, percentage phytotoxicity, AVEFA (Avena fatua (AVEFA) [11]; [17]): 55%
- Post-emergence herbicidal activity, percentage phytotoxicity, AVEFA (Avena fatua (AVEFA) [11]; [18]): 80%
- Post-emergence herbicidal activity, percentage phytotoxicity, AVEFA (Avena fatua (AVEFA) [11]; [19]): 85%
- Post-emergence herbicidal activity, percentage phytotoxicity, AVEFA (Avena fatua (AVEFA) [11]; [20]): 90%
- Post-emergence herbicidal activity, percentage phytotoxicity, ALOMY [12, 17]: 48%
- Post-emergence herbicidal activity, percentage phytotoxicity, ALOMY [12, 18]: 63%
- Post-emergence herbicidal activity, percentage phytotoxicity, ALOMY [12, 19]: 78%
- Post-emergence herbicidal activity, percentage phytotoxicity, ALOMY [12, 20]: 68%
- Post-emergence herbicidal activity, percentage phytotoxicity, POAAN (Poa annua (POAAN); [17]): 0%
- Post-emergence herbicidal activity, percentage phytotoxicity, POAAN (Poa annua (POAAN); [18]): 0%
- Post-emergence herbicidal activity, percentage phytotoxicity, POAAN (Poa annua (POAAN); [19]): 0%
- Post-emergence herbicidal activity, percentage phytotoxicity, POAAN (Poa annua (POAAN); [20]): 0%
- Percentage Phytotoxicity Spring Wheat “Freya” (Spring Wheat “Freya”; [13]): 0%
- Percentage Phytotoxicity Spring Wheat “Freya” (Spring Wheat “Freya”; [14]): 3%
- Percentage Phytotoxicity Spring Wheat “Freya” (Spring Wheat “Freya”; [15]): 70%
- Percentage Phytotoxicity Spring Wheat “Freya” (Spring Wheat “Freya”; [16]): 5%

SMILES: Cc1cc(C)c(C2C(=O)C[C@H](CCNC(=O)c3cc(Cl)ccn3)C2=O)c(C)c1 (stereo partly shown) [Compound A128]
- Percentage Phytotoxicity Spring Barley “Harrington” [9, 13]: 0%
- Percentage Phytotoxicity Spring Barley “Harrington” [9, 14]: 0%
- Percentage Phytotoxicity Spring Barley “Harrington” [9, 15]: 48%
- Percentage Phytotoxicity Spring Barley “Harrington” [9, 16]: 0%
- Percentage Phytotoxicity Winter Wheat “Hereward” (Winter Wheat “Hereward”; [13]): 0%
- Percentage Phytotoxicity Winter Wheat “Hereward” (Winter Wheat “Hereward”; [14]): 0%
- Percentage Phytotoxicity Winter Wheat “Hereward” (Winter Wheat “Hereward”; [15]): 8%
- Percentage Phytotoxicity Winter Wheat “Hereward” (Winter Wheat “Hereward”; [16]): 0%
- Percentage Phytotoxicity Winter Barley “Suzuka” (Winter Barley “Suzuka”; [13]): 0%
- Percentage Phytotoxicity Winter Barley “Suzuka” (Winter Barley “Suzuka”; [14]): 0%
- Percentage Phytotoxicity Winter Barley “Suzuka” (Winter Barley “Suzuka”; [15]): 18%
- Percentage Phytotoxicity Winter Barley “Suzuka” (Winter Barley “Suzuka”; [16]): 0%
- Post-emergence herbicidal activity, percentage phytotoxicity, LOLMU [10, 17]: 43%
- Post-emergence herbicidal activity, percentage phytotoxicity, LOLMU [10, 18]: 63%
- Post-emergence herbicidal activity, percentage phytotoxicity, LOLMU [10, 19]: 85%
- Post-emergence herbicidal activity, percentage phytotoxicity, LOLMU [10, 20]: 78%
- Post-emergence herbicidal activity, percentage phytotoxicity, SETVI (Setaria viridis (SETVI); [17]): 23%
- Post-emergence herbicidal activity, percentage phytotoxicity, SETVI (Setaria viridis (SETVI); [18]): 43%
- Post-emergence herbicidal activity, percentage phytotoxicity, SETVI (Setaria viridis (SETVI); [19]): 55%
- Post-emergence herbicidal activity, percentage phytotoxicity, SETVI (Setaria viridis (SETVI); [20]): 63%
- Post-emergence herbicidal activity, percentage phytotoxicity, AVEFA (Avena fatua (AVEFA) [11]; [17]): 0%
- Post-emergence herbicidal activity, percentage phytotoxicity, AVEFA (Avena fatua (AVEFA) [11]; [18]): 3%
- Post-emergence herbicidal activity, percentage phytotoxicity, AVEFA (Avena fatua (AVEFA) [11]; [19]): 18%
- Post-emergence herbicidal activity, percentage phytotoxicity, AVEFA (Avena fatua (AVEFA) [11]; [20]): 10%
- Post-emergence herbicidal activity, percentage phytotoxicity, ALOMY [12, 17]: 3%
- Post-emergence herbicidal activity, percentage phytotoxicity, ALOMY [12, 18]: 25%
- Post-emergence herbicidal activity, percentage phytotoxicity, ALOMY [12, 19]: 48%
- Post-emergence herbicidal activity, percentage phytotoxicity, ALOMY [12, 20]: 35%
- Post-emergence herbicidal activity, percentage phytotoxicity, POAAN (Poa annua (POAAN); [17]): 0%
- Post-emergence herbicidal activity, percentage phytotoxicity, POAAN (Poa annua (POAAN); [18]): 0%
- Post-emergence herbicidal activity, percentage phytotoxicity, POAAN (Poa annua (POAAN); [19]): 5%
- Post-emergence herbicidal activity, percentage phytotoxicity, POAAN (Poa annua (POAAN); [20]): 0%
- Percentage Phytotoxicity Spring Wheat “Freya” (Spring Wheat “Freya”; [13]): 3%
- Percentage Phytotoxicity Spring Wheat “Freya” (Spring Wheat “Freya”; [14]): 0%
- Percentage Phytotoxicity Spring Wheat “Freya” (Spring Wheat “Freya”; [15]): 7%
- Percentage Phytotoxicity Spring Wheat “Freya” (Spring Wheat “Freya”; [16]): 3%

From patent publication US9808003B2, “Herbicidally active 2-(substituted-phenyl)-cyclopentane-1,3-dione compounds and derivatives thereof” (Syngenta Limited, priority 2013, dated 2017)
